Assay: xn = mol fraction of the nth substance listed
Details: 298.15 K, 101 kPa, Liquid

CC(C)(C)Cl [2-chloro-2-methylpropane] + Cc1ccc(C)cc1
Details | excess molar volume [m3/mol]
x1 = 0.0816 | -1.02e-07
x1 = 0.1212 | -1.48e-07
x1 = 0.1874 | -2.12e-07
x1 = 0.2585 | -2.68e-07
x1 = 0.308 | -3.04e-07
x1 = 0.3746 | -3.32e-07
x1 = 0.4539 | -3.56e-07
x1 = 0.5117 | -3.57e-07
x1 = 0.5918 | -3.44e-07
x1 = 0.6635 | -3.18e-07
x1 = 0.7516 | -2.62e-07
x1 = 0.8683 | -1.56e-07
x1 = 0.9321 | -8.2e-08

CC(C)(C)Cl [2-chloro-2-methylpropane] + Cc1cccc(C)c1
Details | excess molar volume [m3/mol]
x1 = 0.0875 | -8.4e-08
x1 = 0.1216 | -1.16e-07
x1 = 0.1973 | -1.76e-07
x1 = 0.2724 | -2.22e-07
x1 = 0.3516 | -2.58e-07
x1 = 0.4307 | -2.84e-07
x1 = 0.4832 | -2.9e-07
x1 = 0.5214 | -2.94e-07
x1 = 0.5768 | -2.86e-07
x1 = 0.658 | -2.66e-07
x1 = 0.7305 | -2.38e-07
x1 = 0.8543 | -1.52e-07
x1 = 0.9112 | -9.8e-08

CC(C)(C)Cl [2-chloro-2-methylpropane] + Cc1ccccc1
Details | excess molar volume [m3/mol]
x1 = 0.0932 | -1.14e-07
x1 = 0.1243 | -1.48e-07
x1 = 0.1832 | -2.11e-07
x1 = 0.2556 | -2.75e-07
x1 = 0.3342 | -3.28e-07
x1 = 0.3895 | -3.54e-07
x1 = 0.428 | -3.68e-07
x1 = 0.4952 | -3.81e-07
x1 = 0.5467 | -3.76e-07
x1 = 0.5985 | -3.64e-07
x1 = 0.6356 | -3.53e-07
x1 = 0.6889 | -3.2e-07
x1 = 0.8102 | -2.26e-07
x1 = 0.8961 | -1.3e-07
x1 = 0.9405 | -7.4e-08

CC(C)(C)Cl [2-chloro-2-methylpropane] + Cc1ccccc1C
Details | excess molar volume [m3/mol]
x1 = 0.0698 | -1.32e-07
x1 = 0.1023 | -1.86e-07
x1 = 0.1642 | -2.64e-07
x1 = 0.209 | -3.06e-07
x1 = 0.2653 | -3.54e-07
x1 = 0.3321 | -3.88e-07
x1 = 0.4187 | -4.22e-07
x1 = 0.4979 | -4.32e-07
x1 = 0.5984 | -4.28e-07
x1 = 0.6627 | -4.16e-07
x1 = 0.7452 | -3.72e-07
x1 = 0.8056 | -3.22e-07
x1 = 0.9113 | -1.88e-07
x1 = 0.9453 | -1.24e-07

CC(C)(C)Cl [2-chloro-2-methylpropane] + c1ccccc1
Details | excess molar volume [m3/mol]
x1 = 0.0821 | -9.4e-08
x1 = 0.1115 | -1.22e-07
x1 = 0.2016 | -1.8e-07
x1 = 0.2989 | -2.31e-07
x1 = 0.314 | -2.4e-07
x1 = 0.3587 | -2.46e-07
x1 = 0.3959 | -2.52e-07
x1 = 0.446 | -2.58e-07
x1 = 0.5551 | -2.45e-07
x1 = 0.6721 | -2.06e-07
x1 = 0.7422 | -1.74e-07
x1 = 0.828 | -1.28e-07
x1 = 0.914 | -6.6e-08

CCC(C)Cl (stereo unspecified) [2-chlorobutane] + Cc1ccc(C)cc1
Details | excess molar volume [m3/mol]
x1 = 0.0881 | -6.5e-08
x1 = 0.163 | -1.26e-07
x1 = 0.3481 | -2.26e-07
x1 = 0.4012 | -2.48e-07
x1 = 0.4742 | -2.54e-07
x1 = 0.5001 | -2.58e-07
x1 = 0.5534 | -2.52e-07
x1 = 0.6264 | -2.34e-07
x1 = 0.6784 | -2.06e-07
x1 = 0.738 | -1.75e-07
x1 = 0.7871 | -1.46e-07
x1 = 0.8758 | -8.6e-08
x1 = 0.9179 | -5.2e-08

CCC(C)Cl (stereo unspecified) [2-chlorobutane] + Cc1cccc(C)c1
Details | excess molar volume [m3/mol]
x1 = 0.0694 | -5.4e-08
x1 = 0.1004 | -7.8e-08
x1 = 0.139 | -9.4e-08
x1 = 0.2117 | -1.22e-07
x1 = 0.2712 | -1.43e-07
x1 = 0.3438 | -1.5e-07
x1 = 0.4061 | -1.56e-07
x1 = 0.4884 | -1.62e-07
x1 = 0.5442 | -1.62e-07
x1 = 0.601 | -1.56e-07
x1 = 0.7408 | -1.34e-07
x1 = 0.8431 | -1.06e-07
x1 = 0.9249 | -6.2e-08

CCC(C)Cl (stereo unspecified) [2-chlorobutane] + Cc1ccccc1
Details | excess molar volume [m3/mol]
x1 = 0.0856 | -6.6e-08
x1 = 0.1276 | -9.6e-08
x1 = 0.2495 | -1.73e-07
x1 = 0.3441 | -2.12e-07
x1 = 0.4723 | -2.32e-07
x1 = 0.5018 | -2.34e-07
x1 = 0.5569 | -2.32e-07
x1 = 0.6025 | -2.21e-07
x1 = 0.6712 | -2.06e-07
x1 = 0.7991 | -1.46e-07
x1 = 0.9046 | -7.2e-08
x1 = 0.9432 | -4.4e-08

CCC(C)Cl (stereo unspecified) [2-chlorobutane] + Cc1ccccc1C
Details | excess molar volume [m3/mol]
x1 = 0.0784 | -6.6e-08
x1 = 0.121 | -1.12e-07
x1 = 0.1509 | -1.34e-07
x1 = 0.166 | -1.47e-07
x1 = 0.2243 | -2.01e-07
x1 = 0.314 | -2.62e-07
x1 = 0.3921 | -2.92e-07
x1 = 0.4879 | -3.1e-07
x1 = 0.5552 | -2.95e-07
x1 = 0.669 | -2.46e-07
x1 = 0.7282 | -2.12e-07
x1 = 0.8091 | -1.42e-07
x1 = 0.8816 | -8.6e-08
x1 = 0.9052 | -6.4e-08

CCC(C)Cl (stereo unspecified) [2-chlorobutane] + c1ccccc1
Details | excess molar volume [m3/mol]
x1 = 0.0696 | 1e-09
x1 = 0.084 | 2e-09
x1 = 0.1122 | 1e-09
x1 = 0.1524 | 2e-09
x1 = 0.1983 | -2e-09
x1 = 0.2184 | -5e-09
x1 = 0.2744 | -5e-09
x1 = 0.3652 | -1.8e-08
x1 = 0.4665 | -2.6e-08
x1 = 0.5692 | -4.4e-08
x1 = 0.6062 | -4.8e-08
x1 = 0.752 | -5.4e-08
x1 = 0.8041 | -4.6e-08
x1 = 0.8573 | -4e-08
x1 = 0.9032 | -3.5e-08
x1 = 0.9405 | -2.5e-08

Reference: the NIST ThermoML archive (doi:10.1021/je7002918)
